The values that follow come from PubChem BioAssay (NCI).

Some test systems named below: CAKI-1 renal; HCT-15 colon; K-562 leukemia; MDA-MB-231 breast; OVCAR-3 ovarian; OVCAR-4 ovarian; SF-268 CNS; SF-539 CNS; SW-620 colon; UO-31 renal.
Holding throughout (assay): growth of human tumour cells (NCI), 48 h

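Following 48 hours of exposure in 96-well plates, responses at five concentrations were used to interpolate endpoints linearly. Abbreviation: GI50, concentration required for 50% inhibition of growth. TGI marks complete inhibition of growth.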 Some results are limits rather than exact numbers.

Take `CCOC(=O)C(=Cc1ccc(Br)cc1)C(=O)OCC`: the GI50 in the assay on CAKI-1 renal was 1.76 µM; in the assay on HCT-15 colon, 1.44 µM; in the assay on K-562 leukemia, 2.49 µM; with MDA-MB-231 breast it was 2.08 µM; in the assay on OVCAR-3 ovarian it was 1.47 µM; with OVCAR-4 ovarian, 3.06 µM. In addition, the GI50 with SF-268 CNS is 1.91 µM; in the assay on SF-539 CNS, 1.72 µM; with SW-620 colon, 1.61 µM; in the assay with UO-31 renal, 1.57 µM. Moreover, the TGI is 5.59 µM with CAKI-1 renal; 3.5 µM with HCT-15 colon; over 100 µM in the assay on K-562 leukemia; 5.37 µM in the assay with MDA-MB-231 breast; 2.92 µM with OVCAR-3 ovarian; 10.4 µM with OVCAR-4 ovarian. The TGI in the assay with SF-268 CNS worked out at 3.95 µM; with SF-539 CNS, 3.13 µM; with SW-620 colon it was 3.58 µM; with UO-31 renal, 3.34 µM.

`O=C(c1cccs1)c1c(C(F)(F)F)n([O-])c2cc(F)c(F)cc2[n+]1=O`: the GI50 in the assay on CAKI-1 renal was 1.25 µM; with HCT-15 colon it was 0.851 µM; with K-562 leukemia, 0.71 µM; in the assay on MDA-MB-231 breast it was 1 µM; in the assay on OVCAR-3 ovarian, 1.66 µM; in the assay with OVCAR-4 ovarian, 31.9 µM. In addition, the GI50 in the assay with SF-268 CNS was 2.99 µM; in the assay with SF-539 CNS it was 0.314 µM; with SW-620 colon, 2.45 µM; with UO-31 renal it was 2.97 µM. Moreover, the TGI in the assay with CAKI-1 renal was found to be 4 µM; with HCT-15 colon, 2.25 µM; with K-562 leukemia, 2.44 µM; with MDA-MB-231 breast, 3.32 µM; with OVCAR-3 ovarian, 4.14 µM; in the assay with OVCAR-4 ovarian, 50 µM. The TGI in the assay on SF-268 CNS stood at 6.88 µM; in the assay on SF-539 CNS, 0.588 µM; in the assay with SW-620 colon it was 4.09 µM; in the assay on UO-31 renal it was 5.51 µM.

Regarding `COc1cc2cc(C(=O)O)[nH]c2cc1OCc1ccccc1`, the GI50 with CAKI-1 renal is over 100 µM; in the assay on HCT-15 colon, 84 µM; in the assay on K-562 leukemia, over 100 µM; in the assay on MDA-MB-231 breast, over 100 µM; in the assay on OVCAR-3 ovarian, over 100 µM; in the assay on OVCAR-4 ovarian, over 100 µM. In addition, the GI50 in the assay with SF-268 CNS, in the assay with SF-539 CNS, in the assay on SW-620 colon and with UO-31 renal was over 100 µM throughout. The TGI in the assay on CAKI-1 renal, with HCT-15 colon, in the assay on K-562 leukemia, in the assay on MDA-MB-231 breast, in the assay with OVCAR-3 ovarian and in the assay with OVCAR-4 ovarian was over 100 µM each time. Moreover, the TGI in the assay on SF-268 CNS, with SF-539 CNS, in the assay on SW-620 colon and in the assay on UO-31 renal was over 100 µM each time.

As for `NC(C(=O)O)C(N)C(=O)O` (stereo not given), the TGI in the assay with CAKI-1 renal, in the assay on HCT-15 colon, with K-562 leukemia, in the assay with MDA-MB-231 breast, with OVCAR-3 ovarian and with OVCAR-4 ovarian was over 100 µM throughout. Moreover, the TGI with SF-268 CNS, in the assay on SF-539 CNS, in the assay with SW-620 colon and with UO-31 renal was over 100 µM in each case.
